Source: patent US9464071B2 (priority 2010, dated 2016)
Where “and” joins values, the source holds several entries; their conditions need not be identical. Equal values may be shown once.

Compound | melting point
COc1cc(OC)cc(N(CCO)c2ccc3ncc(-c4cnn(C)c4)nc3c2)c1 | 152.97 °C and 153 °C
COc1cc(OC)cc(N(CC2CN(Cc3ccccc3)CCO2)c2ccc3ncc(-c4cnn(C)c4)nc3c2)c1 (stereo not shown) | 134 °C
COc1cc(OC)cc(N(CC2CC2)c2ccc3ncc(-c4cn[nH]c4)nc3c2)c1 | 158 to 160 °C and 159 °C
COc1cc(OC)cc(N(CC2CC2)c2ccc3ncc(-c4cnn(CC(C)C)c4)nc3c2)c1 | 110 °C
COCCn1cc(-c2cnc3ccc(N(CC4CC4)c4cc(OC)cc(OC)c4)cc3n2)cn1 | 101.91 °C
CNC(=O)Cn1cc(-c2cnc3ccc(N(CC4CC4)c4cc(OC)cc(OC)c4)cc3n2)cn1 | 170.82 °C
COc1cc(OC)cc(N(CC2OCCO2)c2ccc3ncc(-c4cnn(C)c4)nc3c2)c1 | 204.29 °C
COc1cc(OC)cc(N(CCN2C(=O)c3ccccc3C2=O)c2ccc3ncc(-c4cnn(C)c4)nc3c2)c1 | 215.88 °C
COc1cc(F)cc(N(CC2CC2)c2ccc3ncc(-c4cnn(C)c4)nc3c2)c1 | 142 °C
COc1cc(OC)cc(N(CC2CC2)c2ccc3ncc(-c4cnn(CCCN5CCOCC5)c4)nc3c2)c1 | 123.16 °C
COc1cc(OC)cc(N(CC2CC2)c2ccc3ncc(-c4cnn(CCN5CCN(CCO)CC5)c4)nc3c2)c1 | 146.13 °C
COCCNC(=O)C(C)(C)n1cc(-c2cnc3ccc(N(CC4CC4)c4cc(OC)cc(OC)c4)cc3n2)cn1 | 104.64 °C
COc1cc(OC)cc(N(Cc2cc(C)on2)c2ccc3ncc(-c4cnn(C)c4)nc3c2)c1 | 171 °C
CNCCN(c1cc(OC)cc(OCCO)c1)c1ccc2ncc(-c3cnn(C)c3)nc2c1 | 142 °C
COc1cc(OC)cc(N(CCN)c2ccc3ncc(-c4cn[nH]c4)nc3c2)c1 | 184 °C
COc1cc(OC)cc(N(CC#Cc2nccn2C)c2ccc3ncc(-c4cnn(C)c4)nc3c2)c1 | 193.25 °C and 192 °C
CNC1CCN(CCCN(c2cc(OC)cc(OC)c2)c2ccc3ncc(-c4cnn(C)c4)nc3c2)C1 (stereo not shown) | 139.15 °C
COc1cc(OC)cc(N(c2ccc3ncc(-c4cnn(C)c4)nc3c2)C2COC2)c1 | 160.14 °C and 164 °C
COc1cc(OCCO)cc(N(CCN)c2ccc3ncc(-c4cnn(C)c4)nc3c2)c1 | 165 °C
COc1cc(OC)cc(N(CCNC2CC(C)(C)NC(C)(C)C2)c2ccc3ncc(-c4cnn(C)c4)nc3c2)c1 | 80 °C
COc1ccc(OC)c(N(CCO)c2ccc3ncc(-c4cnn(C)c4)nc3c2)c1 | 191.73 °C

Compound | melting point
COc1cc(OC)cc(N(CC(F)CN)c2ccc3ncc(-c4cnn(C)c4)nc3c2)c1 (stereo not shown) | 168 °C
COc1cc(OC)cc(N(CCCNCC(F)(F)F)c2ccc3ncc(-c4cnn(C)c4)nc3c2)c1 | 123.12 °C and 126 °C
COc1cc(OCCO)cc(N(CC2CC2)c2ccc3ncc(-c4cnn(CCS(C)(=O)=O)c4)nc3c2)c1 | 80 °C
COc1cc(OC)cc(N(CC2CC2)c2ccc3ncc(-c4cnn(C5CCN(S(C)(=O)=O)CC5)c4)nc3c2)c1 | 200 °C
CNCCn1cc(-c2cnc3ccc(N(CC4CC4)c4cc(OC)cc(OC)c4)cc3n2)cn1 | 103 °C and 103.14 °C
[2H]C([2H])([2H])Oc1cc(OC([2H])([2H])[2H])cc(N(c2ccc3ncc(-c4cnn(C)c4)nc3c2)C([2H])([2H])C([2H])([2H])O)c1 | 149 °C
COc1cc(OC)cc(N(CC2CC2)c2ccc3ncc(-c4cnn(CCC5CCNCC5)c4)nc3c2)c1 | 221 °C and 220.78 °C
COc1cc(OC)cc(N(CC#CCO)c2ccc3ncc(-c4cnn(C)c4)nc3c2)c1 | 157 °C and 156 °C
C#CCN(c1cc(OC)cc(OC)c1)c1ccc2ncc(-c3cnn(CC4CCOCC4)c3)nc2c1 | 106 °C
CCOP(=O)(CCN(c1cc(OC)cc(OC)c1)c1ccc2ncc(-c3cnn(C)c3)nc2c1)OCC | 122 °C
CNc1cccc(CN(c2cc(OC)cc(OC)c2)c2ccc3ncc(-c4cnn(C)c4)nc3c2)n1 | 181 °C and 180 °C
COc1cc(OC)cc(N(CC#Cc2nccc(OC)n2)c2ccc3ncc(-c4cnn(C)c4)nc3c2)c1 | 175 °C
COc1cc(OC)cc(N(CCCNCC(F)(F)F)c2ccc3ncc(-c4cnn(CCCN)c4)nc3c2)c1 | 175 °C
COc1cc(OC)cc(N(CC#Cc2nccs2)c2ccc3ncc(-c4cnn(C)c4)nc3c2)c1 | 167 °C
COc1cc(OC)cc(N(CC#Cc2ncccc2OC)c2ccc3ncc(-c4cnn(C(C)C)c4)nc3c2)c1 | 119 °C
COc1cc(OC)cc(N(CC#Cc2cc(C(N)=O)ccn2)c2ccc3ncc(-c4cnn(C)c4)nc3c2)c1 | 204 °C
COc1cc(OC)cc(N(CC#Cc2cccnc2Br)c2ccc3ncc(-c4cnn(C)c4)nc3c2)c1 | 176 °C
COc1cc(OC)cc(N(CC(=O)Nc2cc(C)ccn2)c2ccc3ncc(-c4cnn(C)c4)nc3c2)c1 | 212 °C
COc1cccnc1C#CCN(c1ccc2ncc(-c3cnn(C)c3)nc2c1)c1c(F)c(OC)cc(OC)c1F | 202 °C
CCOC(=O)Cn1cc(CN(c2cc(OC)cc(OC)c2)c2ccc3ncc(-c4cnn(C)c4)nc3c2)nn1 | 88 °C
COc1cc(OC)cc(N(CC2CCN(CC(F)(F)F)CC2)c2ccc3ncc(-c4cnn(C)c4)nc3c2)c1 | 123 °C and 123.5 °C

Other lines, results leading:

melting point | Compound
80 °C | COc1cc(OCCO)cc(N(CC2CC2)c2ccc3ncc(-c4cn[nH]c4)nc3c2)c1
130 °C | COc1cc(OC)cc(N(CC2CC2)c2ccc3ncc(-c4cnn(CCN)c4)nc3c2)c1
167.45 °C | COc1cc(OC)cc(N(CC2CC2)c2ccc3ncc(-c4cnn(CC(=O)NCCO)c4)nc3c2)c1
193.59 °C | CNCCN(c1cc(OC)cc(OC)c1)c1ccc2ncc(-c3cn[nH]c3)nc2c1
80 °C | COc1cc(OCCO)cc(N(CCCO)c2ccc3ncc(-c4cnn(C)c4)nc3c2)c1
83 °C | COc1cc(OC)cc(N(c2ccc3ncc(-c4cnn(C)c4)nc3c2)[C@H]2CC[C@@H](NC(C)C)CC2)c1
131.39 °C | COc1cc(OC)cc(N(Cc2ccc(Cl)s2)c2ccc3ncc(-c4cnn(Cc5ccc(Cl)s5)c4)nc3c2)c1
146 °C | C=Cc1cc(OC)cc(N(CC2CC2)c2ccc3ncc(-c4cnn(C)c4)nc3c2)c1
80 °C | COc1cc(F)cc(N(CCO)c2ccc3ncc(-c4cn[nH]c4)nc3c2)c1
168.25 °C | COc1cc(OC)cc(N(CCCO)c2ccc3ncc(-c4cnn(C5CCCCO5)c4)nc3c2)c1 (stereo not shown)
159.08 °C and 159 °C | COc1cc(OC)cc(N(CC2CC2)c2ccc3ncc(-c4cnn(CC(C)(C)O)c4)nc3c2)c1
194 °C | COc1cc(F)cc(N(CCNC(C)C)c2ccc3ncc(-c4cn[nH]c4)nc3c2)c1
90 °C | COc1cc(OC)cc(N(CC2CC2)c2ccc3ncc(-c4cnn(C5CCNCC5)c4)nc3c2)c1
67 °C | COc1cc(OC)cc(N(CC#CC2CCN(C(=O)OC(C)(C)C)CC2)c2ccc3ncc(-c4cnn(C)c4)nc3c2)c1
125 °C | COc1cc(O)cc(N(CCCO)c2ccc3ncc(-c4cn[nH]c4)nc3c2)c1
143 °C | COc1cc(C#N)cc(N(CC2CC2)c2ccc3ncc(-c4cnn(C)c4)nc3c2)c1
80 °C | COc1cc(OC)cc(N(c2ccc3ncc(-c4cnn(C)c4)nc3c2)S(=O)(=O)N(C)C)c1
157 °C | COc1cc(OC)cc(N(CC2CNC(=O)O2)c2ccc3ncc(-c4cnn(C)c4)nc3c2)c1 (stereo not shown)
187 °C | COc1cc(OC)cc(N(CC2OCCN(C(C)C)C2=O)c2ccc3ncc(-c4cnn(C)c4)nc3c2)c1 (stereo not shown)
88 °C | COc1cc(OC)cc(N(CC2CN(C(C)C)CCO2)c2ccc3ncc(-c4cnn(C)c4)nc3c2)c1 (stereo not shown)

melting point | Compound
177 °C | CONCCN(c1cc(OC)cc(OC)c1)c1ccc2ncc(-c3cnn(C)c3)nc2c1
148 °C | COc1cc(OC)cc(N(CCNC(C)C)c2ccc3ncc(-c4cnn(CCS(C)(=O)=O)c4)nc3c2)c1
167 °C | COc1cc(OC)cc(N(CC2CNCCN2)c2ccc3ncc(-c4cnn(C)c4)nc3c2)c1 (stereo not shown)
264 °C and 260.14 °C | COc1cc(OC)cc(N(CC(N)=O)c2ccc3ncc(-c4cnn(C)c4)nc3c2)c1
160 to 162 °C | CNC(=O)OCCN(c1cc(OC)cc(OC)c1)c1ccc2ncc(-c3cnn(C)c3)nc2c1
127 °C | [2H]C([2H])([2H])Oc1cc(OC([2H])([2H])[2H])cc(N(CCCNCC(F)(F)F)c2ccc3ncc(-c4cnn(C)c4)nc3c2)c1
85 °C | COc1cccc(C#CCN(c2cc(OC)cc(OC)c2)c2ccc3ncc(-c4cnn(C)c4)nc3c2)c1
62 °C | COc1cc(OC)cc(N(CCO)c2ccc3ncc(-c4cnn(C)c4CCCO)nc3c2)c1
148 °C | COc1cc(OC)cc(N(CC#Cc2ccnc(N)n2)c2ccc3ncc(-c4cnn(C)c4)nc3c2)c1
155 °C | COc1cc(OC)cc(N(CC#Cc2ccc(C)cn2)c2ccc3ncc(-c4cnn(C)c4)nc3c2)c1
167 °C | COc1cc(OC)cc(N(CC#CC2(O)CCNCC2)c2ccc3ncc(-c4cnn(C)c4)nc3c2)c1
126 °C | COc1cc(OC)cc(N(CCN(C)C(C)C)c2ccc3ncc(-c4cnn(C)c4)nc3c2)c1
158.57 °C | COc1cc(OC)cc(N(CC2CO2)c2ccc3ncc(-c4cnn(C)c4)nc3c2)c1 (stereo not shown)
176 °C | COc1cc(OC)cc(N(CCO)c2ccc3ncc(-c4cnn(C)c4CN(C)C)nc3c2)c1
220 °C | COc1cc(OC)cc(N(CC#Cc2cc(Cl)nc(N)n2)c2ccc3ncc(-c4cnn(C)c4)nc3c2)c1
180 to 182 °C and 181 °C | CNCCN(c1cc(OC)cc(OC)c1)c1ccc2ncc(-c3cnn(C)c3)nc2c1
241 °C | COc1cc(OC)cc(N(CC(=O)Nc2nccc(OC)n2)c2ccc3ncc(-c4cnn(C)c4)nc3c2)c1
196 °C and 195.95 °C | COc1cc(OC)cc(N(CCc2nnn[nH]2)c2ccc3ncc(-c4cnn(C)c4)nc3c2)c1
125 °C | COc1cc(OC)cc(N(CCCN2CCC(F)C2)c2ccc3ncc(-c4cnn(C)c4)nc3c2)c1 (stereo not shown)
168 °C and 168.08 °C | COc1cc(OC)cc(N(CC2CCN(C(C)C)CC2)c2ccc3ncc(-c4cnn(C)c4)nc3c2)c1
